Reference: patent US11370847B2, “Single domain antibodies directed against intracellular antigens” (Singh Biotechnology, LLC, priority 2014, dated 2022)
Values joined by “and” are separate entries in the source; they are usually repeats but may differ in a detail not shown here. Equal entries are not always repeated. Where two headings read alike, the source gives them in different places.

Experiments:
MDA-MB-231 xenograft = conditions: for Individual Tumor Measurements: listed as anti-STAT3 bacterial VHH13
DU145 cells = test: MTT proliferation assay, DU145; format: cell-based, human; conditions: 50 μg, single experiments, listed as Anti-STAT3 Bacterial VHH13
[1] = Group 3, 2 mg/kg IP BID×14, day 23 (6/26/15)
[2] = Group 3, 2 mg/kg IP BID×14, day 26 (6/29/15)
[3] = Group 3, 2 mg/kg IP BID×14, day 29 (7/2/15)
[4] = Group 3, 2 mg/kg IP BID×14, day 33 (7/6/15)
[5] = Group 3, 2 mg/kg IP BID×14, day 36 (7/9/15)
[6] = Group 3, 2 mg/kg IP BID×14, day 42 (7/15/15)
[7] = Group 4, 2 mg/kg IP QD×14, day 20 (6/23/15)
[8] = Group 4, 2 mg/kg IP QD×14, day 23 (6/26/15)
[9] = Group 4, 2 mg/kg IP QD×14, day 26 (6/29/15)
[10] = Group 4, 2 mg/kg IP QD×14, day 29 (7/2/15)
[11] = Group 4, 2 mg/kg IP QD×14, day 33 (7/6/15)
[12] = Group 4, 2 mg/kg IP QD×14, day 36 (7/9/15)
[13] = Group 4, 2 mg/kg IP QD×14, day 42 (7/15/15)

anti-STAT3 VHH13: anti-STAT3 single-domain antibody, SEQ ID NO:3; bacterially produced, referred to as SBT-100
Tumor Mean Absolute (MDA-MB-231 xenograft; [1]): 56.89 mm^3
Tumor Median Absolute (MDA-MB-231 xenograft; [1]): 49.39 mm^3
Individual Tumor Measurements (MDA-MB-231 xenograft; [1]): 43.61 mm^3 and 85.18 mm^3 and 54.78 mm^3 and 44.01 mm^3
% Inhibition Mean (MDA-MB-231 xenograft; [2]): 77.83%
% Inhibition Median (MDA-MB-231 xenograft; [2]): 75.54%
Tumor Mean Absolute (MDA-MB-231 xenograft; [2]): 38.22 mm^3
Tumor Median Absolute (MDA-MB-231 xenograft; [2]): 34.02 mm^3
Individual Tumor Measurements (MDA-MB-231 xenograft; [2]): 33.13 mm^3 and 61.75 mm^3 and 34.92 mm^3 and 23.09 mm^3
% Inhibition Mean (MDA-MB-231 xenograft; [3]): 76.54%
% Inhibition Median (MDA-MB-231 xenograft; [3]): 74.17%
Tumor Mean Absolute (MDA-MB-231 xenograft; [3]): 45.95 mm^3
Tumor Median Absolute (MDA-MB-231 xenograft; [3]): 43.07 mm^3
Individual Tumor Measurements (MDA-MB-231 xenograft; [3]): 31.76 mm^3 and 80.69 mm^3 and 54.38 mm^3 and 16.99 mm^3
% Inhibition Mean (MDA-MB-231 xenograft; [4]): 73.69%
% Inhibition Median (MDA-MB-231 xenograft; [4]): 72.49%
Tumor Mean Absolute (MDA-MB-231 xenograft; [4]): 58.27 mm^3
Tumor Median Absolute (MDA-MB-231 xenograft; [4]): 56.29 mm^3
Individual Tumor Measurements (MDA-MB-231 xenograft; [4]): 34.11 mm^3 and 110.72 mm^3 and 78.47 mm^3 and 9.78 mm^3
% Inhibition Mean (MDA-MB-231 xenograft; [5]): 75.18%
% Inhibition Median (MDA-MB-231 xenograft; [5]): 71.22%
Tumor Mean Absolute (MDA-MB-231 xenograft; [5]): 59.21 mm^3
Tumor Median Absolute (MDA-MB-231 xenograft; [5]): 64.51 mm^3
Individual Tumor Measurements (MDA-MB-231 xenograft; [5]): 50.33 mm^3 and 89.11 mm^3 and 78.68 mm^3 and 18.71 mm^3
% Inhibition Mean (MDA-MB-231 xenograft; [6]): 83.89%
% Inhibition Median (MDA-MB-231 xenograft; [6]): 85.17%
Tumor Mean Absolute (MDA-MB-231 xenograft; [6]): 41.15 mm^3
Tumor Median Absolute (MDA-MB-231 xenograft; [6]): 35.89 mm^3
Individual Tumor Measurements (MDA-MB-231 xenograft; [6]): 18.94 mm^3 and 73.89 mm^3 and 51.30 mm^3 and 20.48 mm^3
growth delay (MDA-MB-231 xenograft; Group 3: 2 mg/kg bw IP BID×14): 9.52 days
mean growth inhibition (MDA-MB-231 xenograft; Group 3: 2 mg/kg bw IP BID×14): 75.2
mean tumor size (±S.E.) at termination (day 42) (MDA-MB-231 xenograft; Group 3: 2 mg/kg bw IP BID×14): 41.15±13.21
mean tumor size (±SE) at day 14 of dosing (MDA-MB-231 xenograft; Group 3: 2 mg/kg bw IP BID×14): 58.27±22.54
% treatment/control (MDA-MB-231 xenograft; Group 3: 2 mg/kg bw IP BID×14, (tumor regression)): −54.4%
tumor doubling time (MDA-MB-231 xenograft; Group 3: 2 mg/kg bw IP BID×14, control 20.56 days): 30.07 days
% Inhibition Mean (MDA-MB-231 xenograft; [7]): −14.18%
% Inhibition Median (MDA-MB-231 xenograft; [7]): −1.80%
Tumor Mean Absolute (MDA-MB-231 xenograft; [7]): 105.60 mm^3
Tumor Median Absolute (MDA-MB-231 xenograft; [7]): 100.88 mm^3
Individual Tumor Measurements (MDA-MB-231 xenograft; [7]): 88.56 mm^3 and 78.73 mm^3 and 113.20 mm^3 and 141.91 mm^3
% Inhibition Mean (MDA-MB-231 xenograft; [8]): 32.37%
% Inhibition Median (MDA-MB-231 xenograft; [8]): 16.23%
Tumor Mean Absolute (MDA-MB-231 xenograft; [8]): 93.99 mm^3
Tumor Median Absolute (MDA-MB-231 xenograft; [8]): 96.82 mm^3
Individual Tumor Measurements (MDA-MB-231 xenograft; [8]): 108.35 mm^3 and 51.51 mm^3 and 85.29 mm^3 and 130.82 mm^3
% Inhibition Mean (MDA-MB-231 xenograft; [9]): 54.06%
% Inhibition Median (MDA-MB-231 xenograft; [9]): 43.65%
Tumor Mean Absolute (MDA-MB-231 xenograft; [9]): 79.20 mm^3
Tumor Median Absolute (MDA-MB-231 xenograft; [9]): 78.40 mm^3
Individual Tumor Measurements (MDA-MB-231 xenograft; [9]): 105.80 mm^3 and 54.20 mm^3 and 69.30 mm^3 and 87.49 mm^3
% Inhibition Mean (MDA-MB-231 xenograft; [10]): 46.13%
% Inhibition Median (MDA-MB-231 xenograft; [10]): 38.19%
Tumor Mean Absolute (MDA-MB-231 xenograft; [10]): 105.54 mm^3
Tumor Median Absolute (MDA-MB-231 xenograft; [10]): 103.05 mm^3
Individual Tumor Measurements (MDA-MB-231 xenograft; [10]): 102.94 mm^3 and 70.39 mm^3 and 103.16 mm^3 and 145.68 mm^3
% Inhibition Mean (MDA-MB-231 xenograft; [11]): 40.66%
% Inhibition Median (MDA-MB-231 xenograft; [11]): 36.92%
Tumor Mean Absolute (MDA-MB-231 xenograft; [11]): 131.44 mm^3
Tumor Median Absolute (MDA-MB-231 xenograft; [11]): 129.05 mm^3
Individual Tumor Measurements (MDA-MB-231 xenograft; [11]): 183.39 mm^3 and 84.29 mm^3 and 103.20 mm^3 and 154.89 mm^3
% Inhibition Mean (MDA-MB-231 xenograft; [12]): 55.94%
% Inhibition Median (MDA-MB-231 xenograft; [12]): 54.32%
Tumor Mean Absolute (MDA-MB-231 xenograft; [12]): 105.10 mm^3
Tumor Median Absolute (MDA-MB-231 xenograft; [12]): 102.39 mm^3
Individual Tumor Measurements (MDA-MB-231 xenograft; [12]): 159.78 mm^3 and 55.83 mm^3 and 87.15 mm^3 and 117.63 mm^3
% Inhibition Mean (MDA-MB-231 xenograft; [13]): 43.03%
% Inhibition Median (MDA-MB-231 xenograft; [13]): 48.55%
Tumor Mean Absolute (MDA-MB-231 xenograft; [13]): 145.51 mm^3
Tumor Median Absolute (MDA-MB-231 xenograft; [13]): 124.47 mm^3
Individual Tumor Measurements (MDA-MB-231 xenograft; [13]): 291.06 mm^3 and 42.03 mm^3 and 130.64 mm^3 and 118.31 mm^3
growth delay (MDA-MB-231 xenograft; Group 4: 2 mg/kg bw IP QD×14): 6.61 days
mean growth inhibition (MDA-MB-231 xenograft; Group 4: 2 mg/kg bw IP QD×14): 55.9
mean tumor size (±S.E.) at termination (day 42) (MDA-MB-231 xenograft; Group 4: 2 mg/kg bw IP QD×14): 145.51±52.32
mean tumor size (±SE) at day 14 of dosing (MDA-MB-231 xenograft; Group 4: 2 mg/kg bw IP QD×14): 131.44±22.86
% treatment/control (MDA-MB-231 xenograft; Group 4: 2 mg/kg bw IP QD×14, (tumor inhibition)): 10.28%
tumor doubling time (MDA-MB-231 xenograft; Group 4: 2 mg/kg bw IP QD×14, control 20.56 days): 27.17 days
mean tumor size (±S.E.) at termination (day 28) (MDA-MB-231 xenograft; SBT-100 5 mg/kg bw i.p. BID×14): 91.72±33.17
mean tumor size (±SE) at last day of dosing (Day 14) (MDA-MB-231 xenograft; SBT-100 5 mg/kg bw i.p. BID×14): 83.81±22.65
% treatment/control (MDA-MB-231 xenograft; SBT-100 5 mg/kg bw i.p. BID×14, (tumor inhibition)): 13.35%
tumor doubling time (MDA-MB-231 xenograft; SBT-100 5 mg/kg bw i.p. BID×14, control […] days): 111.6 days
mean tumor growth inhibition at the end of the study (MDA-MB-231 xenograft; SBT-100 5 mg/kg bw i.p. BID×14, p=0.006): 85.8%
Absorbance (DU145 cells): 0.68 and 1.2
